In PubChem BioAssay (NCI):
Converted amounts (≈) assume the structure as drawn.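 Grown in 96-well plates, cells were treated for 48 hours with each compound at five concentrations. Insufficient inhibition: endpoint recorded as highest concentration tested. GI50 marks 50% less growth. TGI is the concentration that stops growth completely.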 Non-standard residues stand in square brackets, D forms with d. Residues, ends and D or L forms follow the SMILES beside them. ξ: configuration not given here. *: point of attachment. Boc = CC(C)(C)OC(=O)*; ξV = CC(C)C(N)C(=O)O; OBn = c1ccc(CO*)cc1

How the values were obtained:
Test in all cases: NCI-60 cell line screen, 48 h
786-0 renal = system: 786-0 renal
A498 renal = system: A498 renal
A549 NSCLC = system: A549 NSCLC
ACHN renal = system: ACHN renal
BT-549 breast = system: BT-549 breast
CAKI-1 renal = system: CAKI-1 renal
CCRF-CEM leukemia = system: CCRF-CEM leukemia
COLO 205 colon = system: COLO 205 colon
EKVX NSCLC = system: EKVX NSCLC
HCC-2998 colon = system: HCC-2998 colon
HCT-116 colon = system: HCT-116 colon
HCT-15 colon = system: HCT-15 colon
HL-60(TB) leukemia = system: HL-60(TB) leukemia
HOP-62 NSCLC = system: HOP-62 NSCLC
HOP-92 NSCLC = system: HOP-92 NSCLC
HS 578T breast = system: HS 578T breast
HT29 colon = system: HT29 colon
IGROV1 ovarian = system: IGROV1 ovarian
K-562 leukemia = system: K-562 leukemia
KM12 colon = system: KM12 colon
LOX IMVI melanoma = system: LOX IMVI melanoma
M14 melanoma = system: M14 melanoma
MALME-3M melanoma = system: MALME-3M melanoma
MCF7 breast = system: MCF7 breast
MDA-MB-231 breast = system: MDA-MB-231 breast
MDA-MB-435 = system: MDA-MB-435
MDA-N = system: MDA-N
MOLT-4 leukemia = system: MOLT-4 leukemia
NCI-H226 lung = system: NCI-H226 lung
NCI-H460 lung = system: NCI-H460 lung
NCI-H522 lung = system: NCI-H522 lung
NCI/ADR-RES ovarian = system: NCI/ADR-RES ovarian
OVCAR-3 ovarian = system: OVCAR-3 ovarian
OVCAR-4 ovarian = system: OVCAR-4 ovarian
OVCAR-5 ovarian = system: OVCAR-5 ovarian
OVCAR-8 ovarian = system: OVCAR-8 ovarian
PC-3 prostate = system: PC-3 prostate
RPMI-8226 leukemia = system: RPMI-8226 leukemia
RXF 393 renal = system: RXF 393 renal
SF-268 CNS = system: SF-268 CNS
SF-295 CNS = system: SF-295 CNS
SF-539 CNS = system: SF-539 CNS
SK-MEL-2 melanoma = system: SK-MEL-2 melanoma
SK-MEL-28 melanoma = system: SK-MEL-28 melanoma
SK-MEL-5 melanoma = system: SK-MEL-5 melanoma
SK-OV-3 ovarian = system: SK-OV-3 ovarian
SN12C renal = system: SN12C renal
SNB-19 CNS = system: SNB-19 CNS
SNB-75 CNS = system: SNB-75 CNS
SW-620 colon = system: SW-620 colon
TK-10 renal = system: TK-10 renal
U251 CNS = system: U251 CNS
UACC-257 melanoma = system: UACC-257 melanoma
UACC-62 melanoma = system: UACC-62 melanoma

COc1ccc(-c2c(C#N)c(-c3ccc(C)cc3)n(NS(=O)(=O)c3ccccc3)c(=O)c2C#N)cc1
TGI (786-0 renal): > 100 µM | TGI (A498 renal): > 100 µM | TGI (A549 NSCLC): > 100 µM | TGI (ACHN renal): > 100 µM | TGI (BT-549 breast): > 100 µM | TGI (CAKI-1 renal): > 100 µM | TGI (CCRF-CEM leukemia): > 100 µM | TGI (COLO 205 colon): > 100 µM | TGI (EKVX NSCLC): > 100 µM | TGI (HCC-2998 colon): > 100 µM | TGI (HCT-116 colon): > 100 µM | TGI (HCT-15 colon): > 100 µM | TGI (HL-60(TB) leukemia): 52.3 µM | TGI (HOP-62 NSCLC): > 100 µM | TGI (HOP-92 NSCLC): > 100 µM | TGI (HS 578T breast): > 100 µM | TGI (HT29 colon): > 100 µM | TGI (IGROV1 ovarian): > 100 µM | TGI (K-562 leukemia): > 100 µM | TGI (KM12 colon): > 100 µM | TGI (LOX IMVI melanoma): > 100 µM | TGI (M14 melanoma): > 100 µM | TGI (MALME-3M melanoma): > 100 µM | TGI (MCF7 breast): > 100 µM | TGI (MDA-MB-231 breast): > 100 µM | TGI (MDA-MB-435): > 100 µM | TGI (MDA-N): > 100 µM | TGI (MOLT-4 leukemia): 60.4 µM | TGI (NCI-H226 lung): > 100 µM | TGI (NCI-H460 lung): > 100 µM | TGI (NCI-H522 lung): > 100 µM | TGI (NCI/ADR-RES ovarian): > 100 µM | TGI (OVCAR-3 ovarian): > 100 µM | TGI (OVCAR-4 ovarian): > 100 µM | TGI (OVCAR-5 ovarian): > 100 µM | TGI (OVCAR-8 ovarian): > 100 µM | TGI (PC-3 prostate): > 100 µM | TGI (RPMI-8226 leukemia): 39.4 µM | TGI (RXF 393 renal): > 100 µM | TGI (SF-268 CNS): > 100 µM | TGI (SF-295 CNS): > 100 µM | TGI (SF-539 CNS): > 100 µM | TGI (SK-MEL-2 melanoma): > 100 µM | TGI (SK-MEL-28 melanoma): > 100 µM | TGI (SK-MEL-5 melanoma): 44.8 µM | TGI (SK-OV-3 ovarian): > 100 µM | TGI (SN12C renal): > 100 µM | TGI (SNB-19 CNS): > 100 µM | TGI (SNB-75 CNS): > 100 µM | TGI (SW-620 colon): > 100 µM | TGI (TK-10 renal): > 100 µM | TGI (U251 CNS): > 100 µM | TGI (UACC-257 melanoma): > 100 µM | TGI (UACC-62 melanoma): > 100 µM

CC(C)C(NC(=O)OC(C)(C)C)C(=O)NCC(=O)OCc1ccccc1 (stereo not drawn) (Boc-[ξV]-Gly-OBn)
GI50 (786-0 renal): 24 mg/L (≈ 65.9 µM) | TGI (786-0 renal): 71.9 mg/L | GI50 (CCRF-CEM leukemia): 0.594 mg/L (≈ 1.63 µM) | TGI (CCRF-CEM leukemia): 30.8 mg/L | GI50 (COLO 205 colon): 19.7 mg/L (≈ 53.9 µM) | TGI (COLO 205 colon): 40.9 mg/L | GI50 (HCC-2998 colon): 48.2 mg/L (≈ 132 µM) | GI50 (HCT-116 colon): 22 mg/L (≈ 60.3 µM) | TGI (HCT-116 colon): 52.6 mg/L | GI50 (HCT-15 colon): 31.9 mg/L (≈ 87.6 µM) | GI50 (HL-60(TB) leukemia): 17.3 mg/L (≈ 47.5 µM) | TGI (HL-60(TB) leukemia): 44.2 mg/L | GI50 (HS 578T breast): 98.2 mg/L (≈ 269 µM) | GI50 (K-562 leukemia): 18.3 mg/L (≈ 50.3 µM) | TGI (K-562 leukemia): 75.1 mg/L | GI50 (KM12 colon): 51.9 mg/L (≈ 142 µM) | GI50 (M14 melanoma): 35.9 mg/L (≈ 98.4 µM) | GI50 (MCF7 breast): 87 mg/L (≈ 239 µM) | GI50 (MDA-MB-231 breast): 43 mg/L (≈ 118 µM) | GI50 (MDA-MB-435): 44.5 mg/L (≈ 122 µM) | GI50 (MDA-N): 57.5 mg/L (≈ 158 µM) | GI50 (MOLT-4 leukemia): 52.7 mg/L (≈ 145 µM) | GI50 (NCI-H522 lung): 30 mg/L (≈ 82.2 µM) | GI50 (OVCAR-3 ovarian): 48.8 mg/L (≈ 134 µM) | GI50 (RPMI-8226 leukemia): 36.1 mg/L (≈ 99 µM) | TGI (RPMI-8226 leukemia): 86.1 mg/L | GI50 (SK-MEL-2 melanoma): 22.5 mg/L (≈ 61.7 µM) | TGI (SK-MEL-2 melanoma): 69.2 mg/L | GI50 (U251 CNS): 94.9 mg/L (≈ 260 µM)
